Reference: patent publication US20080193411A1, “Anti-viral Compounds” (Genelabs Technologies, Inc., priority 2006, published 2008)

system: HCV replication; assay: HCV replicon assay (luciferase), ET (Huh-lucubineo-ET) cell line; assay type: cell-based; settings: Hepatitis C virus; tested at 10 μM; ET (Huh-lucubineo-ET) replicon cells; luciferase activity 48-72 hours; relative to no compound control
Method: A cell line, ET (Huh-lucubineo-ET) was used for screening of compounds of the present invention for inhibiting HCV replication. The ET cell line was stably transfected with RNA transcripts harboring a I389luc-ubi-neo/NS3-3′/ET; replicon with firefly luciferase-ubiquitin-neomycin phosphotransferase fusion protein and EMCV-IRES driven NS3-5B polyprotein containing the cell culture adaptive mutations (E1202G; T1280I; K1846T) (Krieger at al, 2001 and unpublished). The ET cells were grown in DMEM (Dulbeco's Modified Eagle's Medium), supplemented with 10% fetal calf serum, 2 mM Glutamine, Penicillin (100 IU/mL)/Streptomycin (100 μg/mL), 1× nonessential amino acids, and 250 μg/mL G418 (“Geneticin”). They were all available through Life Technologies (Bethesda, Md.). The cells were plated at 0.5-1.0×10^4 cells/well in the 96 well plates and incubated for 24 hrs before adding testing compounds. Then the compounds were added to the cells to achieve a final concentration of 0.1 nM to 50 μM and a final DMSO concentration of 0.5%. Luciferase activity were measured 48-72 hours later by adding a lysis buffer and the substrate (Catalog number Glo-lysis buffer E2661 and Bright-Glo luciferase system E2620 Promega, Madison, Wis.). Cells should not be too confluent during the assay. Percent inhibition of replication was plotted relative to no compound control. Under the same condition, cytotoxicity of the compounds was determined using cell proliferation reagent, WST-1 (Roche, Germany). The compounds showing antiviral activities, but no significant cytotoxicities were chosen to determine EC50 and TC50. For these determinations, a 10 point 2-fold serial dilution for each compound was used, which spans a concentration range of 1000 fold. EC50 and similarly TC50 values were calculated by fitting % inhibition at each concentration to the following equation:
% inhibition=100%/[(IC50/[I])^b+1]
where b is Hill's coefficient.
In some preferred embodiments compounds of Formula I will have a % inhibition of at least 20% when tested at 10 μM. In other embodiments the compounds of Formula I will have a % inhibition of at least 50% when tested at 10 μM.

Compound | inhibition at 10 µM
Cc1nc2cc(-c3ccc4nc([C@@H]5CCCN5C(=O)OCc5ccccc5)[nH]c4c3)ccc2s1 [Compound 4051, (S)-2-[6-(2-Methyl-benzothiazol-5-yl)-1H-benzoimidazol-2-yl]-pyrrolidine-1-carboxylic acid benzyl ester] | 32.8%
O=C(OCc1ccccc1)N1CCC[C@H]1c1nc2ccc(-c3cccc(O)c3)cc2[nH]1 [Compound 4054, (S)-2-[6-(3-Hydroxy-phenyl)-1H-benzoimidazol-2-yl]-pyrrolidine-1-carboxylic acid benzyl ester] | 99.3%
O=C(NC1CC1)c1ccc(-c2csc(NC[C@@H]3CCCN3C(=O)OCc3ccccc3)n2)cc1 [Compound 4055, (S)-2-{[4-(4-Cyclopropylcarbamoyl-phenyl)-thiazol-2-ylamino]-methyl}-pyrrolidine-1-carboxylic acid benzyl ester] | 44%
O=C(NCc1cccc(-c2ccc3nc([C@@H]4CCCN4C(=O)OCc4ccccc4)[nH]c3c2)c1)C1CC1 [Compound 4057, (S)-2-(6-{3-[(Cyclopropanecarbonyl-amino)-methyl]-phenyl}-1H-benzoimidazol-2-yl)-pyrrolidine-1-carboxylic acid benzyl ester] | 99.4%
O=C(NC1CC1)c1ccc(-c2cccc(C#C[C@@H]3CCCN3C(=O)OCc3ccccc3)c2)cc1 [Compound 4060, (S)-2-(4′-Cyclopropylcarbamoyl-biphenyl-3-ylethynyl)-pyrrolidine-1-carboxylic acid benzyl ester] | 48.4%
